Where a name gives a salt, the structure may show the parent alone.
Assays:
Format in all cases: functional
[1] = In vitro cytotoxic activity against human gingival fibroblasts (HGF).
[2] = In vitro cytotoxic activity against human squamous cell carcinoma (HSC-2) cells.
[3] = In vitro cytotoxic activity against human salivary gland tumor (HSG) cells.

In the case of `O=C(c1ccccc1)C(O)C(F)(F)F` (centres undefined), the CC50 [1] is reported as 1300 µM, the CC50 [2] is reported as 36 µM and the CC50 [3] is reported as 240 µM.
With `CCCCCCC(=O)C(O)C(F)(F)F` (centres undefined) the CC50 [1] was 790 µM, the CC50 [2] was 90 µM and the CC50 [3] was 220 µM.
Work on `O=C(C(=O)C(F)(F)F)c1ccccc1` yielded a CC50 [1] of 510 µM, a CC50 [2] of 79 µM and a CC50 [3] of 390 µM.
Compound `O=C(Cc1ccccc1)C(O)C(F)(F)F` (centres undefined) has a CC50 [1] of 310 µM, a CC50 [2] of 22 µM and a CC50 [3] of 110 µM.
Work on `CC(=O)CC(=O)C(F)(F)F` yielded a CC50 [1] of over 3200 µM, a CC50 [2] of 2500 µM and a CC50 [3] of 3200 µM.
Work on `O=C(CC(O)C(F)(F)F)c1ccccc1` (centres undefined) yielded a CC50 [1] of 1700 µM, a CC50 [2] of 240 µM and a CC50 [3] of 1500 µM.
`COC(=O)CC(=O)C(F)(F)F` showed a CC50 [1] of over 2900 µM, a CC50 [2] of 1300 µM and a CC50 [3] of 1800 µM.
Compound `OC(Cc1ccccc1)C(F)(F)F` (centres undefined) has a CC50 [1] of 1700 µM, a CC50 [2] of 460 µM and a CC50 [3] of 1300 µM.
Work on `O=C(OC1c2ccccc2-c2ccccc21)N1C=C(C(=O)C(F)(F)F)CC1` yielded a CC50 [1] of 230 µM, a CC50 [2] of 140 µM and a CC50 [3] of 180 µM.
`O=C(Cc1ccccc1)C(F)(F)F` gave a CC50 [1] of 2200 µM, a CC50 [2] of 1400 µM and a CC50 [3] of 1600 µM.
With `O=C(c1ccccc1)C(F)(F)F` the CC50 [1] was over 2900 µM, the CC50 [2] was over 2900 µM and the CC50 [3] was 2700 µM.
`O=C(Cc1ccccn1)C(F)(F)F` gave a CC50 [1] of 2100 µM, a CC50 [2] of 620 µM and a CC50 [3] of 1600 µM.
`Cc1nc(CC(=O)C(F)(F)F)oc1C` gave a CC50 [1] of 77 µM, a CC50 [2] of under 68 µM and a CC50 [3] of 150 µM.
In the case of `O=C(c1cccs1)C(F)(F)F`, the CC50 [1] is reported as over 2800 µM, the CC50 [2] is reported as 1900 µM and the CC50 [3] is reported as 2700 µM.
Work on `OC(c1ccccc1)C(F)(F)F` (centres undefined) yielded a CC50 [1] of 2200 µM, a CC50 [2] of 1100 µM and a CC50 [3] of 2100 µM.
For `O=C(Oc1ccccc1)N1C=C(C(=O)C(F)(F)F)CC1`, the CC50 [1] was 620 µM, the CC50 [2] was 230 µM and the CC50 [3] was 270 µM.
Work on `C=CCOC(=O)N1C=C(C(=O)C(F)(F)F)CC1` yielded a CC50 [1] of 140 µM, a CC50 [2] of 110 µM and a CC50 [3] of 240 µM.
`CC(=O)C(O)c1ccccc1` (centres undefined) showed a CC50 [1] of 3200 µM, a CC50 [2] of 1700 µM and a CC50 [3] of 2900 µM.
In the case of `O=C(NCCCC(=O)C(O)C(F)(F)F)c1ccccc1` (centres undefined), the CC50 [1] is reported as 420 µM, the CC50 [2] is reported as 31 µM and the CC50 [3] is reported as 400 µM.
Work on `O=C(CC(=O)C(F)(F)F)c1ccccc1` yielded a CC50 [1] of 1400 µM, a CC50 [2] of 150 µM and a CC50 [3] of 420 µM.
`O=C(Cc1nc2ccccc2s1)C(F)(F)F` gave a CC50 [1] of 430 µM, a CC50 [2] of 150 µM and a CC50 [3] of 390 µM.
For `O=C(c1nc2ccccc2o1)C(F)(F)F`, the CC50 [1] was 2200 µM, the CC50 [2] was 580 µM and the CC50 [3] was 1700 µM.
`O=C(c1ccc[nH]1)C(F)(F)F` gave a CC50 [1] of 2100 µM, a CC50 [2] of 870 µM and a CC50 [3] of 1800 µM.
`O=C(c1c[nH]c2ccccc12)C(F)(F)F` showed a CC50 [1] of 2000 µM, a CC50 [2] of 94 µM and a CC50 [3] of 1300 µM.
In the case of `O=C(Cc1nc2ccccc2o1)C(F)(F)F`, the CC50 [1] is reported as 630 µM, the CC50 [2] is reported as 43 µM and the CC50 [3] is reported as 79 µM.
Compound `O=C(Cc1nc2ccccc2[nH]1)C(F)(F)F` has a CC50 [1] of 200 µM, a CC50 [2] of 53 µM and a CC50 [3] of 340 µM.
`COc1cccc2c1C(=O)c1c(O)c3c(c(O)c1C2=O)C[C@@](O)(C(=O)CO)C[C@@H]3O[C@H]1C[C@H](N)[C@H](O)[C@H](C)O1` [DOXORUBICIN HYDROCHLORIDE] gave a CC50 [2] of 4.1 µM.
